Results as given in publication PMC10302582, “Unveiling the Potential of BenzylethyleneAryl–Urea Scaffolds for the Design of New Onco Immunomodulating Agents” (Pharmaceuticals, 2023).

Columns and labels:
[1] = tested on: HT-29 (colon adenocarcinoma); experiment: MTT cell proliferation assay, HT-29; format: cell-based; conditions: Homo sapiens, HT-29; MTT, 48 h treatment; read-out: IC50 HT-29
Method: (§1) After the supernatant was discarded, we solved the formazan crystal in 100 µL of DMSO. The absorbance was then registered at 550 nm using a plate lector. For all concentrations of any compound, cell viability was expressed as the percentage of the ratio between the mean absorbance of the treated cells and the mean absorbance of the untreated cells. Three to five experiments were performed to establish the IC50 values (i.e., concentration half inhibiting cell proliferation, we used GraphPad Prism 7 software).

[2] = tested on: A-549 (pulmonary adenocarcinoma); experiment: MTT cell proliferation assay, A-549; format: cell-based; conditions: Homo sapiens, A549; MTT, 48 h treatment; read-out: IC50 A-549
Method: as §1

[3] = tested on: HEK-293 (human embryonic kidney cells); experiment: MTT cell proliferation assay, HEK-293; format: cell-based; conditions: HEK293, 48 h treatment
Method: (§2) The action on cell proliferation caused by our developed compounds was studied using an MTT assay using the human tumor cell lines of HT-29 (colon adenocarcinoma) and A-549 (pulmonary adenocarcinoma), as well as toward the non-tumor cell line HEK-293 (human embryonic kidney cells), Jurkat T-cells and human microvessel endothelial cells (HMEC-1).
(§3) In general, 5 × 10^3 (HT-29, A549, HMEC-1, Jurkat and HEK-293) cells per well were seeded in 96-well plates with 1:1 dilutions of the compounds in a volume of 100 μL of the cell media. The 3-(4,5-dimethylthiazol-2-yl)-2,5-diphenyltetrazolium bromide (MTT; Sigma Chemical Co.) dye exclusion assay was performed, and after 48 h (37 °C, 5% CO2 in a humid atmosphere), 10 μL of MTT (5 mg/mL in phosphate-buffered saline, PBS) was added to each well and incubated for 3 h at 37 °C. After the supernatant was discarded, we solved the formazan crystal in 100 µL of DMSO. The absorbance was then registered at 550 nm using a plate lector. For all concentrations of any compound, cell viability was expressed as the percentage of the ratio between the mean absorbance of the treated cells and the mean absorbance of the untreated cells. Three to five experiments were performed to establish the IC50 values (i.e., concentration half inhibiting cell proliferation, we used GraphPad Prism 7 software).

[4] = tested on: Jurkat T-cells; experiment: MTT cell proliferation assay, Jurkat T-cells; format: cell-based; conditions: 48 h treatment
Method: as §2, §3

[5] = molecular target: T1, PD-L1 (Homo sapiens, UniProt Q9NZQ7); experiment: PD-L1 relative quantification by flow cytometry in HT-29 cells; format: cell-based; conditions: for total PD-L1 (%) expression: HT-29 cells, 24 h, relative to DMSO control = 100
T1 construct: assess the effect of our new ureas on these two proteins only on the HT-29 cancer cell line through the use of flow cytometry; endogenous in cells; host or cells: HT-29
Method: (§4) The cells were incubated for a period of time of one day with doses of each of the selected compounds at two different doses: 20 and 100 µM concentrations.
(§5) The effects of the compounds on the target in the cancer cell lines compounds were tested using 20 and 100 µM doses. For that, 10^5 cells per well were seeded on a 12-well plate for 24 h with the corresponding dose of the tested compound in a total volume of 500 μL of cell media. To determine the total PD-L1 and VEGFR-2, the cells were collected and fixed with 4% in a PBS of formaldehyde. After this, a treatment with 0.5% in PBS Triton^TM X-100 permeabilized the membranes. Finally, the cells were treated with FITC Mouse monoclonal Anti-Human VEGFR-2 (ab184903) and Alexa Fluor® 647 Rabbit monoclonal Anti-PD-L1 (ab215251).
(§6) To determine surface PD-L1 and VEGFR-2, the assay used was similar to the above but avoided the permeabilization step (Triton^TM X-100).

[6] = molecular target: T2, VEGFR-2 (Homo sapiens, UniProt P35968); experiment: VEGFR-2 relative quantification by flow cytometry in HT-29 cells; format: cell-based; conditions: HT-29 cells, 20 μM, 24 h, relative to DMSO control = 100
T2 construct: assess the effect of our new ureas on these two proteins only on the HT-29 cancer cell line through the use of flow cytometry; endogenous in cells; host or cells: HT-29
Method: as §4
as §5, with “membranes.” for “membranes. Finally, the cells were treated with FITC Mouse monoclonal Anti-Human VEGFR-2 (ab184903) and Alexa Fluor® 647 Rabbit monoclonal Anti-PD-L1 (ab215251).”
as §6

[7] = tested on: HT-29 cells co-cultured with THP-1; experiment: Cancer cell proliferation in co-cultures of HT-29 and THP-1; format: cell-based, human; conditions: 100 μM
Method: To establish the potential of the selected compounds as immunomodulator agents, we studied the effect of the selected compounds on HT-29 cell proliferation when co-cultured with human monocytic leukemia cell line THP-1. For the study, we used different proportions of cancer and immune cells. Standard protocol proportions were 1:5 cancer/immune cells. We include a test using a 2:1 proportion of HT-29 cells to THP-1 cells. The tests were performed for two periods of time: 24 and 48 h, using 100 μM doses of the selected compounds and BMS-8 as the reference compound.
(§7) To determine the action of the compounds on cancer cell proliferation in co-culture with immune cells, 10^5 or 2 × 10^5 of the HT-29 cells line were seeded in each well of 12-well plates and left at 37 °C for 24 h. Then, the cancer cells were treated with IFN-γ (10 ng/mL; human, Invitrogen®, Waltham, MA, USA) containing 5 × 10^5 or 10^5, respectively, of THP-1 cells per well and the corresponding compound at 100 μM or DMSO for the positive control. After 24 h/48 h of incubation, the supernatants were collected to establish the alive THP-1 cells using FSC and SCC flow cytometry. In addition, cancer cells were collected with trypsin, fixed with 4% in PBS paraformaldehyde and counted using flow cytometry.

[8] = tested on: THP-1 cells co-cultured with HT-29; experiment: Immune cell proliferation in co-cultures of HT-29/THP-1; format: cell-based, human; conditions: 100 μM
Method: We also determined the effect of the selected compounds on the human monocyte cells THP-1 in the described co-cultures (see Table 6).
as §7

[9] = tested on: CD80; experiment: CD80 detection on membrane of co-cultured THP-1; format: cell-based, human; conditions: 1:5 HT-29/THP-1; 24 h; relative to non-treated co-cultured THP-1
Text: (§8) Reducing the expression of CD11b has become a promising target for immune modulation in anticancer therapies. For that reason, we decided to study the effect of our compounds on CD11b in THP-1 cells co-cultured with HT-29. We also determined the relative amount of CD80, a common surface marker for monocytes.
(§9) The results are related to non-treated THP-1 cells when they were co-cultured with HT-29.
(§10) The action of the compounds on CDs in co-cultured THP-1 immune cells with cancer cell line HT-29 was tested by treating them with the compounds for 24 h/48 h (see Section 4.2.5). Surface CD11b and CD80 was determined by collecting THP-1 with trypsin, fixing with formaldehyde and staining with FITC Mouse monoclonal Anti-Human CD80 (Sigma-Aldrich SAB4700142) and Alexa Fluor® 647 Rabbit monoclonal Anti-CD11b (Merck #MABF366, Rahway, NJ, USA).

[10] = tested on: CD11b; experiment: CD11b detection on membrane of co-cultured THP-1; format: cell-based, human; conditions: 1:5 HT-29/THP-1; 24 h; relative to non-treated co-cultured THP-1
Text: as §8, §9, §10

[11] = tested on: human microvessel endothelial cells (HMEC-1); experiment: MTT cell proliferation assay, HMEC-1; format: cell-based; conditions: 48 h treatment
Method: as §2, §3

[12] = tested on: HMEC-1 endothelial cells; experiment: Microvessel formation inhibition assay on Matrigel; format: cell-based, human; conditions: HMEC-1 on Matrigel
Method: The antiangiogenic action of the selected compounds, as well as the reference compounds, was evaluated by determining the effect on the formation of new microvessels formed by HMEC-1 endothelial cells on a Matrigel matrix.
We used IBIDI μ-slide angiogenesis plates (IBIDI, Martins ried, Germany). The wells were coated with 15 μL of Matrigel® (10 mg/mL, BD Biosciences, San Jose, CA, USA) at 4 °C and incubated at 37 °C for at least 30 min. Afterward, the HMEC-1 cells were seeded at 2 × 10^4 cells/well in 25 μL of medium and were left for 30 min at 37 °C while they attached. Then, the compounds were added in serial doses in 25 μL of the medium, and after several hours (maximum 24 h) of incubation at 37 °C, pictures for the wells were taken to evaluate the formation of microvessels.

T1 sequence (Q9NZQ7 19-290): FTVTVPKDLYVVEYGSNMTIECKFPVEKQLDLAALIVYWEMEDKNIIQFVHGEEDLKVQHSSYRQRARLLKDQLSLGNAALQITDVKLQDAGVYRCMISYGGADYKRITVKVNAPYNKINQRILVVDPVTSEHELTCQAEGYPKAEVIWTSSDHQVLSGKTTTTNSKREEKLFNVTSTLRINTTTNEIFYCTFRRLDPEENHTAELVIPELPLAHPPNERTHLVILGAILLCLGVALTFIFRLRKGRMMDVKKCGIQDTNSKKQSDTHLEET
T2 sequence (P35968 20-1356): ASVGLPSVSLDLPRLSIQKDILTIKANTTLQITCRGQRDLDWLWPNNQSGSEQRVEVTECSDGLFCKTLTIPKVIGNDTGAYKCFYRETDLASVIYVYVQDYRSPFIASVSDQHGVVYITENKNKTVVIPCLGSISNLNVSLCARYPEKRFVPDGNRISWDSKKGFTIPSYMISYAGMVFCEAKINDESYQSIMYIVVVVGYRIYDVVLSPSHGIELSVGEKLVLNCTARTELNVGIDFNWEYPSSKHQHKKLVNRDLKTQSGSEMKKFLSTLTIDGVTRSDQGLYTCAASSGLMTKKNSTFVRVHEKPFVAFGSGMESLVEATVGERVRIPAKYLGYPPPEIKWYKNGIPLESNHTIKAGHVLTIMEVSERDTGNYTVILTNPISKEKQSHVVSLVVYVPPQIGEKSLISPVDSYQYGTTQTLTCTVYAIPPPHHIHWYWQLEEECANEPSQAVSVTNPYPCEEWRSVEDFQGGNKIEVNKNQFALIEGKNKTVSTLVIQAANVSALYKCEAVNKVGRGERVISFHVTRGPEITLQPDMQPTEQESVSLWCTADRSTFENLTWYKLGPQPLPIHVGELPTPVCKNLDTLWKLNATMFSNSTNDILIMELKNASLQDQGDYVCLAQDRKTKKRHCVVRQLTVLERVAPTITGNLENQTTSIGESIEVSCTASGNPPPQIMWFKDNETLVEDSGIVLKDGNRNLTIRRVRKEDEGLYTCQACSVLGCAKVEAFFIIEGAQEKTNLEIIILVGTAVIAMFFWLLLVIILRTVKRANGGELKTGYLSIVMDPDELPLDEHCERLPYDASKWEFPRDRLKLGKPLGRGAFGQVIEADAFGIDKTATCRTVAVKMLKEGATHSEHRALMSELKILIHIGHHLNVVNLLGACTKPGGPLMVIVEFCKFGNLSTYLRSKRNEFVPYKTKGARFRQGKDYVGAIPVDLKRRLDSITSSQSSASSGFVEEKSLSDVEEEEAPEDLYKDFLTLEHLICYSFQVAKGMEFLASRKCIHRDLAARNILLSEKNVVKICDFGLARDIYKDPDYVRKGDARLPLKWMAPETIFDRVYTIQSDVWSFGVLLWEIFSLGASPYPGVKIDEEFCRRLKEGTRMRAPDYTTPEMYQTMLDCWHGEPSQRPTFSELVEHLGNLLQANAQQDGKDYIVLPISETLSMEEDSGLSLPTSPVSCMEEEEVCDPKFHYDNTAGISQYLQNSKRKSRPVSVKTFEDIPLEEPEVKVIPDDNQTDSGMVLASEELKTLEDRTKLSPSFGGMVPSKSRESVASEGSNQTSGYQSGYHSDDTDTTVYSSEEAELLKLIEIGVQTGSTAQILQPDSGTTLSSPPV

Compound	IC50 [1] [µM]	IC50 [2] [µM]	IC50 ([4]; Homo sapiens, Jurkat, 48 h) [µM]	melting point [°C]	IC50 [4] [µM]	IC50 [3] [µM]	IC50 ([11]; Homo sapiens, HMEC-1, 48 h) [µM]	also measured
Cc1c(COc2ccc(CN3CCCCC3C(=O)O)cc2Br)cccc1-c1ccccc1 (stereo not drawn) [BMS-8, reference compound]	19 ± 2	6 ± 1	> 100	–	–	60 ± 10	–	inhibition of PD-L1 expression ([5]; HT-29, total PD-L1, 20 μM): around 15%; total PD-L1 (%) expression ([5]; 20 μM): 82 ± 21%; total PD-L1 (%) expression ([5]; 100 μM): 67 ± 20%; total VEGFR-2 (%) expression [6]: 86 ± 21%; HT-29 cancer cell proliferation in co-culture ([7]; 1:5 HT-29/THP-1, 24 h): 11 ± 6; HT-29 cancer cell proliferation in co-culture ([7]; 1:5 HT-29/THP-1, 48 h): 21 ± 3; HT-29 cancer cell proliferation in co-culture ([7]; 2:1 HT-29/THP-1, 24 h): 8 ± 1; HT-29 cancer cell proliferation in co-culture ([7]; 2:1 HT-29/THP-1, 48 h): 16 ± 2; THP-1 cell proliferation in co-culture ([8]; 1:5 HT-29/THP-1, 24 h): 158 ± 6; THP-1 cell proliferation in co-culture ([8]; 1:5 HT-29/THP-1, 48 h): 124 ± 0; THP-1 cell proliferation in co-culture ([8]; 2:1 HT-29/THP-1, 24 h): 385 ± 12; THP-1 cell proliferation in co-culture ([8]; 2:1 HT-29/THP-1, 48 h): 186 ± 10; % CD80 expression in membrane of THP-1 [9]: 93 ± 3%; % CD11b expression in membrane of THP-1 [10]: 79 ± 5%
COc1ccc(CCCc2cccc(NC(=O)Nc3ccccc3F)c2)cc1 [C.5]	58 ± 16	29 ± 5	> 100	152	–	24 ± 4	> 100	–
COc1ccc(CCCc2cccc(NC(=O)Nc3ccc(Cl)cc3)c2)cc1 [C.6]	4 ± 1	20 ± 10	> 100	179 to 182	–	4 ± 1	> 100	–
COc1ccc(CCCc2cccc(NC(=O)Nc3ccccc3Cl)c2)cc1 [C.8]	47 ± 2	> 100	> 100	134 to 136	–	37 ± 8	> 100	–
CNC(=O)c1cc(Oc2ccc(NC(=O)Nc3ccc(Cl)c(C(F)(F)F)c3)cc2)ccn1 [Sorafenib, sorafenib, reference compound]	17 ± 4	27 ± 2	–	–	–	5 ± 0.7	34 ± 3	effect on total PD-L1 ([5]; HT-29, at either of the tested doses (20 and 100 μM)): No significant effect; total PD-L1 (%) expression ([5]; 20 μM): 96 ± 49%; total PD-L1 (%) expression ([5]; 100 μM): 102 ± 10%; Minimum Active Conc. inhibiting microtube formation [12]: 10 µM
CCN(CC)CCNC(=O)c1c(C)[nH]c(/C=C2\C(=O)Nc3ccc(F)cc32)c1C [Sunitinib, reference compound]	–	–	–	–	–	–	–	Minimum Active Conc. inhibiting microtube formation [12]: 3 µM

Now from value to compound, other results behind:

IC50 [1] [µM]	IC50 [2] [µM]	IC50 ([4]; Homo sapiens, Jurkat, 48 h) [µM]	melting point [°C]	IC50 [4] [µM]	Compound	IC50 [3] [µM]	IC50 ([11]; Homo sapiens, HMEC-1, 48 h) [µM]	also measured
25 ± 5	> 100	> 100	157 to 159	–	COc1ccc(CCCc2cccc(NC(=O)Nc3ccccc3)c2)cc1 [C.2]	12 ± 1	> 100	–
> 100	> 100	> 100	154	–	COc1ccc(CCCc2cccc(NC(=O)Nc3cccc(F)c3)c2)cc1 [C.4]	22 ± 5	> 100	–
14 ± 3	19 ± 1	~20	143 to 147	17 ± 1	COc1ccc(CCCc2cccc(NC(=O)Nc3cccc(Cl)c3)c2)cc1 [C.7]	14 ± 3	~20	IC50 [11]: 18 ± 8 µM
1.9 ± 0.6	7 ± 1	> 100	–	–	COc1ccc(CCCc2cccc(NC(=O)Nc3ccc(Br)cc3)c2)cc1 [C.9]	2.1 ± 0.2	> 100	–
11 ± 2	8 ± 2	~20	141 to 144	18 ± 7	COc1ccc(CCCc2cccc(NC(=O)Nc3cccc(Br)c3)c2)cc1 [C.10]	9 ± 4	~20	IC50 [11]: 17 ± 7 µM
15 ± 4	20 ± 5	~20	137 to 140	26 ± 18	COc1ccc(CCCc2cccc(NC(=O)Nc3ccccc3Br)c2)cc1 [C.11]	27 ± 4	~20	IC50 [11]: 25 ± 1 µM
8 ± 5	18 ± 5	~20	107 to 110	24 ± 4	COc1ccc(CCCc2cccc(NC(=O)Nc3cccc(OC)c3)c2)cc1 [C.13]	15 ± 3	~20	–
